ChEMBL document CHEMBL1138643, “Haloperidol: towards further understanding of the structural contributions of its pharmacophoric elements at D2-like receptors” (Bioorg Med Chem Lett, 2004)

Key:
[1] = Binding affinity for dopamine D3 receptor
D(4) dopamine receptor = biological target: T1, D(4) dopamine receptor (Homo sapiens, UniProt P21917); test: Binding affinity for dopamine D4 receptor
T1 sequence (P21917 whole entry): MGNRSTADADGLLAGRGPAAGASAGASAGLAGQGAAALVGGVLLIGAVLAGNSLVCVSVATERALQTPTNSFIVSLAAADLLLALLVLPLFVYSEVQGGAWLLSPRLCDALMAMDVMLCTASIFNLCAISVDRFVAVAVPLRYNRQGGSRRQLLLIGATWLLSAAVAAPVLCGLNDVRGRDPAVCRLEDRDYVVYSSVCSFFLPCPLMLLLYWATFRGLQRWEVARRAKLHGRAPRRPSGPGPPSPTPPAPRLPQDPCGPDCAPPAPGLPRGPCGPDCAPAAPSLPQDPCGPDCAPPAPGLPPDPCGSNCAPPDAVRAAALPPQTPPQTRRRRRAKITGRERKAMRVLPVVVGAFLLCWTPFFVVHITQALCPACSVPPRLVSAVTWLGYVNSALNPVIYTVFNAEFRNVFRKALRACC

[2] = Binding affinity for dopamine D2 receptor to that of dopamine D4 receptor
D(2) dopamine receptor = D(2) dopamine receptor (Homo sapiens, UniProt P14416)
Chain of D(2) dopamine receptor (P14416 whole entry): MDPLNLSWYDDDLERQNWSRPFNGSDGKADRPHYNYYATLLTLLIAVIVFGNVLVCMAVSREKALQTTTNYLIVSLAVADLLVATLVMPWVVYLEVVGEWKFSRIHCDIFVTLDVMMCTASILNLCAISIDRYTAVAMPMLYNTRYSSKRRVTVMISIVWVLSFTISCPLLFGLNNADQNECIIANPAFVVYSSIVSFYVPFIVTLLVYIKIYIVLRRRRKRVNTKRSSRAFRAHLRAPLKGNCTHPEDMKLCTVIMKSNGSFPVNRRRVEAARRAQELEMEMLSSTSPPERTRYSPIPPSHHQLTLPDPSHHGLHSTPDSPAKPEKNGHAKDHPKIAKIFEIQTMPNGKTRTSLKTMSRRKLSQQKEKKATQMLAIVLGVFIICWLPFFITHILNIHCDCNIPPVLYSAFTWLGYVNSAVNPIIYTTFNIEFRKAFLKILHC

Row | Structure (SMILES) | Ki [1] | Ki (D(4) dopamine receptor) | Ratio [2] | Ki (D(2) dopamine receptor)
1 | O=C(CN1C2CCC1CC(O)(c1ccc(Cl)cc1)C2)c1ccc(F)cc1 (stereo not drawn) | > 10000 nM | – | – | –
2 | O=C(CCCN1C2CCC1CC(O)(c1ccccc1)C2)c1ccc(F)cc1 (stereo not drawn) | 3.2 nM | 19.1 nM | – | –
3 | O=C(CCCN1CCN(c2ccc(Cl)cc2)CC1)c1ccc(F)cc1 | – | 17.5 nM | – | –
4 | O=C(CCCN1C2CCC1CC(O)(c1ccc(Cl)cc1)C2)c1ccc(F)cc1 (stereo not drawn) | – | – | 0.03 | –
5 | O=C(CCCN1CCC(c2ccc(Cl)cc2)CC1)c1ccc(F)cc1 | 46 nM | – | – | –
6 | O=C(CCCN1C2CCC1CC(c1ccc(Cl)cc1)C2)c1ccc(F)cc1 (stereo not drawn) | 222 nM | 345 nM | 0.6 | 190 nM
7 | O=C(CCCN1C2CCC1CC(c1ccccc1)C2)c1ccc(F)cc1 (stereo not drawn) | 51.4 nM | 177 nM | 0.7 | –
